Assay results: US20050180962A1, “Inactivated probiotic bacteria and methods of use thereof” (priority 2003, published 2005)

What was measured:
DSS-induced colitis = DSS-induced colitis (DSS 3.5% in drinking water, 7 days); assay type: in vivo, Balb/c mice; set-up: key to Histological Score: summed histological score, 0 (minimum) to 20 (maximum); conditions: for Disease Activity Score / Histological Score / MPO: mean±SEM
Method: To induce dextran sodium sulfate (DSS) colitis, DSS (Sigma) was given in the drinking water for 7 days. Preliminary studies were performed to identify the concentration of DSS in the drinking water required to elicit a similar disease activity score in different mouse strains.
(§1) Mice were sacrificed 7 days after the induction of colitis. All studies were performed in a blind fashion.
Probiotics, including live probiotics, irradiated probiotics, and heat killed probiotics, were intragastrically (i.g.) given starting 10 days prior to the induction of colitis and for 7 days thereafter. In preliminary studies, mice were treated daily by i.g. administration of 0.28×10^8, 2.8×10^8 or 28×10^8 CFU of irradiated probiotics per mouse per day.
(§2) In another experiment 50 μg of these DNA preparations were administered i.g. or intrarectally (i.r.) 2 hrs prior to DSS administration. In the IL-10 deficient colitis model, ten-week old mice were treated s.c. once a week with the various DNA preparations (see above), and this treatment continued for 4 weeks as described (Rachmilewitz et al. (2002) supra). The disease-activity score, histological score, and colonic myeloperoxidase (MPO) activity were determined as described (Rachmilewitz et al. (2002) supra).
A mouse model of colitis was used and assessed, as described. Rachmilewitz et al. (2002) Gastroenterology 122:1428-1441. Colitis was induced by adding dextran sodium sulfate (DSS, Sigma), 3.5% to the drinking water, and allowing them to drink ad libitum. Seven days after induction of colitis, mice were weighed and inspected for diarrhea and rectal bleeding. The mice were sacrificed, and the entire colon was dissected and its length measured and weighed. Scores were again defined as follows: Changes in body weight: No loss—0; 5 to 10%—1; […], —2; 15 to 20%, —3; >20%—4. Hemoccult: No blood, —0; positive, —2; gross blood, —4. Mucosal samples were processed for determination of MPO activity according to: Bradley (1982) J Invest Dermatol 78:206-9.
When indicated, sections from the distal colon were fixed in buffered formalin and routine 5 μm sections were prepared and stained with hematoxylin and eosin. Stained sections were examined blindly and scored. The scoring system took into account the depth of the ulcer, the extent of the ulcer, presence of inflammation, extent of inflammation, and location of fibrosis. Minimal score was 0 and maximal score was 20. Scoring was as follows for depth of the ulcer: 0=no ulcer; 1—mucosal involvement; 2—mucosal+submucosal involvement; 3=penetration of muscularis propria; 4=full thickness involvement. Scoring was as follows for extent of the ulcer: 0=no ulcer; 1=punctate; 2=minimal; 3=moderate; 4=widespread. Scoring was as follows for presence of inflammation: 0=none; 1=minimal; 2=mild; 3=moderate; 4=severe. Scoring was as follows for extent of inflammation: 0=none; 1=mucosal; 2=mucosal+submucosal involvement; 3=mucosal+submucosal+muscle penetration; 4=full thickness involvement. Scoring was as follows for location of fibrosis: 0=none; 1=mucosa only; 2=mucosa+submucosa; 3=including muscle layer; 4=full thickness fibrosis.
Fifty mg colonic mucosal scrapings were homogenized with a polytron (Kinematica GmbH, Krienz-Luzem, Switzerland) in ice-cold hexadecyltrimethyl ammonium bromide (0.5%) in 50 mM phosphate buffer, pH 6.0. The homogenate was sonicated for 10 seconds, freeze-thawed three times, and centrifuged for 15 minutes. An aliquot of the supernatant was taken for determination of myeloperoxidase (MPO) enzyme activity, as described (Rachmilewitz et al. (2002) supra).

TNBS-induced colitis = experiment: TNBS-induced colitis; assay type: in vivo, Balb/c mice; conditions: s.c. once 2 hours before TNBS; day 7; mean±SEM
Method: Trinitrobenzenesulfonic acid (TNBS) colitis was induced in 8 week old, Balb/c mice by rectal instillation of 0.5 mg/mouse of 2,4,6-trinitrobenzene sulfonic acid (Sigma) dissolved in 0.1 ml of 50% ethanol as described. Rachmilewitz et al. (2002), supra.
as §1
as §2, with “Various DNA preparations (ISS-ODN and control-ODN, 30 μg/mouse; probiotic DNA, methylated probiotic DNA, E. coli DNA and calf thymus DNA, 50 μg/mouse) and DNase treated probiotics (i.e., the amount of microorganisms that yielded 50 μg of probiotic DNA) were s.c. injected 2 hrs prior to the administration of DSS or TNBS. In another” for “In another”

[1] = test system: chronic DSS-induced colitis; experiment: Chronic DSS-induced colitis (treatment model); assay type: in vivo, Balb/c mice
Method: To evaluate whether probiotics are effective not only in the prevention but also in the treatment of colitis the following experiment was performed: Mice were treated for 7 days with DSS 3.5% added to the drinking water. From the 8th day until sacrifice on day 15, the concentration of DSS in the drinking water was reduced to 1.75%. During the 15 days of the experiment, 2 groups of mice were treated daily i.g. with viable or with irradiated probiotics 2.8×10^8 CFU. A third group was treated s.c. on day 8 with ISS-ODN (10 μg) and a fourth control group was treated i.g. daily with 0.2 ml of saline. […] The colon was isolated, weighed, sections were taken for histology and mucosal samples were obtained for MPO determination.

[2] = test system: spontaneous colitis in IL-10 KO mice; experiment: Spontaneous colitis in IL-10 KO mice; assay type: in vivo, IL-10 KO mice (B6); conditions: s.c. once a week for 4 weeks; mean±SEM
Method: as §2, with “Various DNA preparations (ISS-ODN and control-ODN, 30 μg/mouse; probiotic DNA, methylated probiotic DNA, E. coli DNA and calf thymus DNA, 50 μg/mouse) and DNase treated probiotics (i.e., the amount of microorganisms that yielded 50 μg of probiotic DNA) were s.c. injected 2 hrs prior to the administration of DSS or TNBS. In another” for “In another”

TLR9 = experiment: IL-12 (p40) and IL-6 secretion by macrophages (ELISA); assay type: cell-based, mice; conditions: TLR9 null macrophages, 24 hours post-stimulation
commensal flora = experiment: Effect of chloroquine on stool flora of mice; assay type: in vivo; conditions: 10 mg/kg s.c. daily for 7 days versus saline
Method: Control group was treated s.c. daily with 0.2 ml of saline. After 7 days, stool samples were collected, homogenized and cultured on blood, Maconkey, phenylethanol, chocolate, M.R.S., and anaerobic agars.

[3] = i.g., 50 μg once 2 hours before DSS
[4] = s.c. once 2 hours before DSS, ODNs 30 μg/mouse, DNAs 50 μg/mouse
[5] = i.r., 50 μg once 2 hours before DSS
[6] = DSS 3.5% 7 days then 1.75% 7 days, probiotics 2.8×10^8 CFU i.g. daily, ISS-ODN 10 μg s.c. day 8, day 15, mean±SEM

5′-TGACTGTG AAGGTTAGAGATGA-3 (DNA TGACTGTGAAGGTTAGAGATGA; DNA, all phosphorothioate, methylation of C not given here) [Control-ODN]
Disease Activity Score (DSS-induced colitis; [3]): 6.7 ± 0.8
Histological Score (DSS-induced colitis; [3]): 5.7 ± 0.3
MPO (DSS-induced colitis; [3]): 1.90 ± 0.20 U/gr
Disease Activity Score (DSS-induced colitis; [4]): 3.8 ± 0.7
Histological Score (DSS-induced colitis; [4]): 8.0 ± 0.9
MPO (DSS-induced colitis; [4]): 4.2 ± 0.8 U/gr
Disease Activity Score (TNBS-induced colitis): 1.3 ± 0.2
Histological Score (TNBS-induced colitis): 4.8 ± 1.8
MPO (TNBS-induced colitis): 2.00 ± 0.30 U/gr

5′-TGACTGTGAACGTTCGAGATGA-3′ [ISS-ODN]
Disease Activity Score (DSS-induced colitis; [3]): 3.6 ± 0.7
Histological Score (DSS-induced colitis; [3]): 2.8 ± 0.6
MPO (DSS-induced colitis; [3]): 1.09 ± 0.10 U/gr
outcome of colitis (DSS-induced colitis; i.r. administration, once 2 hrs before DSS): had no effect
Disease Activity Score (DSS-induced colitis; [5]): 6.3 ± 0.7
Histological Score (DSS-induced colitis; [5]): 5.9 ± 0.7
MPO (DSS-induced colitis; [5]): 1.90 ± 0.30 U/gr
severity of DSS-induced colitis (DSS-induced colitis; intragastric or s.c. administration, once 2 hrs before DSS): inhibited the severity
Disease Activity Score (DSS-induced colitis; [4]): 0.4 ± 0.4
Histological Score (DSS-induced colitis; [4]): 0 ± 0
MPO (DSS-induced colitis; [4]): 0.9 ± 0.1 U/gr
Disease Activity Score [1, 6]: 1.1 ± 0.4
Histological Score [1, 6]: 6.9 ± 0.8
MPO [1, 6]: 1.25 ± 0.19 U/gr
severity of chronic DSS induced colitis ([1]; given with or after induction of colitis): equally attenuate the severity
Disease Activity Score (TNBS-induced colitis): 0.4 ± 0.3
Histological Score (TNBS-induced colitis): 0 ± 0
MPO (TNBS-induced colitis): 0.8 ± 0.10 U/gr
Histological Score [2]: 1.8 ± 1.2
MPO [2]: 0.8 ± 0.10 U/gr
secretion of p40 or IL-6 (TLR9): did not induce

CCN(CC)CCCC(C)Nc1ccnc2cc(Cl)ccc12 (stereo not drawn) [Chloroquine, chloroquine]
MPO (DSS-induced colitis; colonic MPO, probiotics 2.8×10^8 CFU i.g. daily, chloroquine 10 mg/kg s.c. daily, DSS 3.5% 7 days): 1.54 ± 0.16 U/gr
Histological Score (DSS-induced colitis; probiotics 2.8×10^8 CFU i.g. daily, chloroquine 10 mg/kg s.c. daily, DSS 3.5% 7 days): 8.0 ± 0.8
identity or quantity of bacterial strains grown from the stool (commensal flora): No significant differences
